In PMC13077603, “Fluorine‐18‐Labeled Nucleotide Analogs Targeting Ecto‐5'‐Nucleotidase (CD73) for Positron Emission Tomography Imaging of Solid Tumors” (Angewandte Chemie (International Ed. in English), 2026):

Key:
[1] = target: Human serum albumin (HSA) (Homo sapiens, UniProt P02768); assay: Plasma protein binding (human serum albumin binding); assay type: in vitro ADME; settings: human serum albumin (HSA), read-out: Plasma protein binding (PPB) (converted)
Experimental: Human serum albumin (HSA) binding.
Plasma protein binding was determined following previously published procedure.^[38^]

[2] = target: T1, CD73/AMPase activity in human breast tumor tissues (Homo sapiens, UniProt P21589); assay: In situ enzyme histochemistry of AMPase activity in breast tumor cryosections; assay type: biochemical; settings: 10–50 nM inhibitor, 400 µM AMP, tissue cryosections
T1 construct: cryosections of breast tumor samples as well as sentinel lymph node samples were investigated; from tissue; host or cells: primary breast tumors and sentinel lymph nodes of two patients, 6 µm cryosections
T1 sequence (P21589 27-574): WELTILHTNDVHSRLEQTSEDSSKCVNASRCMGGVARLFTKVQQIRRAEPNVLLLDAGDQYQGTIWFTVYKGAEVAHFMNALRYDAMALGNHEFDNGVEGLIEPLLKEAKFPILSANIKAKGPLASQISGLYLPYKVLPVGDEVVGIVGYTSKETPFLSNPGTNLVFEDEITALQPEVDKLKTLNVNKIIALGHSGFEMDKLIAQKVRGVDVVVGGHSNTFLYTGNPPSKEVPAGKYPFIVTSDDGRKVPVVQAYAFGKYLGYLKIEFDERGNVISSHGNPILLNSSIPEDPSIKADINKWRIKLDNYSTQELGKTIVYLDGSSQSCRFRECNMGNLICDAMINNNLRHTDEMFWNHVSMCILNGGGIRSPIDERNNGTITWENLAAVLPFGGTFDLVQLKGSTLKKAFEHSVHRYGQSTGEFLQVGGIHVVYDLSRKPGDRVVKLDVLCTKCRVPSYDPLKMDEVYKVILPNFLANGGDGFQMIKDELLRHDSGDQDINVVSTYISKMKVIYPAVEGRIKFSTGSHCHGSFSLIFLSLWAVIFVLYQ
Experimental: Subsequent analysis of CD73‐mediated AMPase activities was performed by incubating tissue cryosections with AMP and CD73 inhibitors at different concentrations. Figure 2 depicts representative images of AMP‐specific staining in breast tumors from patient X (panel A) and patient Y (panel B), determined in the absence (control) and in the presence of 10 nM of the potent CD73 inhibitor 1.
FIGURE 3 Effects of CD73 inhibitors on AMPase activity in human breast tumor tissues. The effects of CD73 inhibitors on AMPase activity was determined in situ by incubating primary breast tumor samples from patient X (A) and patient Y (B) with 400 µM AMP and 1.5 mM Pb(NO3)2 in the absence (control) and the presence of the indicated concentrations of CD73 inhibitor. (C). Mean pixel intensities of brown staining due to the hydrolysis of AMP leading to Pb3(PO4)2 precipitation were quantified in the selected regions and expressed as arbitrary units (AU) (mean ± SEM; n = 2). Scale bars: 2 mm (A, B), and 500 µm (A, right insets).
For the localization of AMPase activities in human tumors, the lead nitrate-based enzyme histochemistry was employed. […] AMPase activity was determined by measuring AMP-specific brown staining intensities from the images using QuPath v.0.3.0 software. […] The average DAB intensity levels were measured as described earlier.^[39^] […]

[3] = target: T2, Soluble recombinant human CD73 (Homo sapiens, UniProt P21589); assay: CD73 enzyme inhibition assay, soluble recombinant human CD73; assay type: biochemical; settings: soluble recombinant human CD73, Km 17 µM, substrate AMP (5 µM)
T2 sequence (P21589 27-549 limits assumed): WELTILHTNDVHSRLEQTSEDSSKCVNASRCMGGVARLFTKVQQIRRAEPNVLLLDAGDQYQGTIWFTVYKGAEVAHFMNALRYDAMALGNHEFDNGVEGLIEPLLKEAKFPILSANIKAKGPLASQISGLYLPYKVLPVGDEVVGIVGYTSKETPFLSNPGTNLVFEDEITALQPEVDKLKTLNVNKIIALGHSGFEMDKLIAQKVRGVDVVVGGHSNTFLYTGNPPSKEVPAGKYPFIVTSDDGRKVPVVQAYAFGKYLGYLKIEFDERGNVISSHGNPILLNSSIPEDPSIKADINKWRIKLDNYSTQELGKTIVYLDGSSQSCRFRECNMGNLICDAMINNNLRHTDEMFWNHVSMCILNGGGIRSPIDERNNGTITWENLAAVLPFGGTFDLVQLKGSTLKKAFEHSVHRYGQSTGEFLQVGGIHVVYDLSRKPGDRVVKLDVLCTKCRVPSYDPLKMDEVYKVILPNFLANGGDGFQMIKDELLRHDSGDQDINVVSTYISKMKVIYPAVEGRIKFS
Experimental: Both compounds were evaluated for metabolic stability in mouse liver microsomes (MLM) and plasma protein binding (PPB) (Table 1).
The CD73 enzyme inhibition assay of recombinant soluble CD73, membrane-bound human CD73, soluble rat CD73 and mouse CD73 was performed as previously described.^[16,35^]

[4] = logD7.4 determination of radiotracers (PBS/octan-1-ol); assay type: physicochemical; settings: octan-1-ol/PBS; PBS pH 7.4 / octan-1-ol, radiotracer
Experimental: The logD 7.4 values of both radiotracers were determined using a previously described method based on their distribution between phosphate‐buffered saline (PBS) and octan‐1‐ol.
Triazole radiotracers (~400 kBq) in PBS buffer (10 µL, pH 7.4) were added to PBS buffer (590 µL, pH 7.4) and octan-1-ol (600 µL). The two-layer mixture was shaken for 3 min on a vortex mixer at r.t. and centrifuged (200 g) for 5 min. The main part of the octanol layer (400 µL) was carefully collected and transferred to a new tube containing PBS buffer (400 µL, pH 7.4). The two-layer mixture was shaken again for 10 min and centrifuged for 5 min (200 g). Three samples were prepared, and two aliquots (á 100 µL) of both layers were measured in a gamma-counter 2480 Wizard2 (Perkin-Elmer, Waltham, USA). The partition coefficient was determined by dividing cpm (octanol) by cpm (PBS) and indicated as logD7.4 (exp.).

Human serum albumin (HSA), sequence (P02768 25-609): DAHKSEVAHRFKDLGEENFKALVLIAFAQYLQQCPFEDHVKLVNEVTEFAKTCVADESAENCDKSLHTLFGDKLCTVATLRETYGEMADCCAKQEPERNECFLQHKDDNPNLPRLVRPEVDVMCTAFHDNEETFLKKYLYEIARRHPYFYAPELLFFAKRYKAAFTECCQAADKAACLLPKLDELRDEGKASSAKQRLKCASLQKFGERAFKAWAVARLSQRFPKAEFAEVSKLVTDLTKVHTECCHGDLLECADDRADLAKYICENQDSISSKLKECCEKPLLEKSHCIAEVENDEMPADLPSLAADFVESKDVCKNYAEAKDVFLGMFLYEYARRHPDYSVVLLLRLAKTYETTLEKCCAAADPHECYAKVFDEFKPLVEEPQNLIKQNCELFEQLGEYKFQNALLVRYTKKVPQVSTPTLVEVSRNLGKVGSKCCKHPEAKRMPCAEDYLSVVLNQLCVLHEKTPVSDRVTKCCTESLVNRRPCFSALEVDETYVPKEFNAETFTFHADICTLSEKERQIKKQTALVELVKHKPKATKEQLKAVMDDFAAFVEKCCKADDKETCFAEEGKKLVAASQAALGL

## Cn1c(=O)n([C@@H]2O[C@H](COP(=O)(O)CP(=O)(O)O)[C@@H](O)[C@H]2O)cc/c1=N/OCc1ccc(-c2cn(CCF)nn2)cc1 [compound 2, [((2R,3S,4R,5R)-5-{4-[({4-[1-(2-Fluoroethyl)-1H-1,2,3-triazol-4-yl]benzyl}oxy)-imino]-3-methyl-2-oxo-3,4-dihydropyrimidin-1(2H)-yl}-3,4-dihydroxytetrahydro-furan-2-yl)methoxy]-(phosphonomethyl)phosphonic acid]
[1]
  fraction unbound: 0.34
[2]
  Reduction of CD73/AMPase activity in the breast TME: 60%–70
[3]
  Ki: 0.664 nM
[4]
  logD: 0.74 ± 0.3
